Patent publication US20230151432A1, “KIF18A INHIBITORS FOR TREATMENT OF NEOPLASTIC DISEASES” (AMGEN INC., priority 2020, published 2023)
“Also recorded” adds a separate entry of the source.

Tests used:
[1] = system: human bone marrow mononuclear cells (HBMNC); assay: BrdU cell cycle analysis and live cell count in normal cells; type: cell-based; details: two normal donors; for BrdU incorporation (cell cycle analysis) relative to DMSO/vehicle control: 48 h, C9, C11, palbociclib 1 μM, ispinesib 0.05 μM, paclitaxel; for live cell count relative to vehicle control: 96 hours
Method: The effect KIF18A inhibitor treatment has on proliferation of normal somatic cells (e.g., not neoplastic cells) was tested by assaying proliferation of human bone marrow mononuclear cells (HBMNCs), primary human foreskin fibroblast cells (hFSF) and human mammary epithelial cells via a 5-bromo-2′-deoxyuridine (BrdU) incorporation assay in which BrdU, an analog of the nucleoside thymidine, is used to identify proliferating cells (Payton et. al., Molecular Cancer Therapeutics, 17(12):2575-85 (2018)). Cells were analyzed on BD LSRFortessa flow cytometer using BD FACSDiva software (BD Biosciences), and post-acquisition data analysis was performed using FSC-Express software (De Novo). The percentage of BrdU positive gated events on the stacked DNA content histograms were reported.
To further examine the effects of KIF18A inhibitor treatment on HBMNC, two normal donors were assessed using the BrdU coupled cell cycle assay and cell count assay (96 hours) was. […] In particular, the amount of BrdU-stained proliferating cells treated with Ispinesib, paclitaxel, or a CDK 4/6 inhibitor (palbociclib) was far less than the amount of vehicle control-treated BrdU-stained cells. […] KIF18A inhibitor treatment was also analyzed for impact on live cell count. After 96 hours, live cells were counted by Vi-CELL XR Cell Viability Analyzer (Beckman Coulter).
To investigate whether KIF18A inhibitors could circumvent this normal cell toxicity barrier, we examined the effects of Compounds C9 and C11 on a panel of cycling normal somatic cell types. First, we treated human bone marrow mononuclear cells (HBMNC) from two normal donors with DMSO, Compound C9 and C11 at 1 μM, ispinesib at 0.05 μM, paclitaxel at 0.05 μM, or palbociclib at 1 μM for 48 h (cell cycle) or 96 h (cell growth).
BrdU and cell cycle analysis. Human bone marrow mononuclear cells (HBMNCs) from two normal donors (#37612, #37534) were cultured for 8 days in defined media as previously described (Payton et al 2018). HBMNCs were seeded in 24-well plate at 1.2×10^6 cells per well in duplicate plates. Cells were treated with DMSO, Compound C9 (1 μM), Compound C11 (1 μM), ispinesib (0.05 μM), paclitaxel ([…]), or palbociclib (1 μM). Cells were collected at 48 h (cell cycle) and 96 h (cell growth). The first set of plates were pulsed with BrdU for 2 h and processing for BrdU cell cycle analysis as previously described (Payton et al 2018). Cells were analyzed on BD LSRFortessa flow cytometer running BD FACSDiva software and post-acquisition data analysis was performed using FSC-Express software. Data was reported for the percentage of BrdU and subG1 gated populations. The second set of plates were collected, and cells counted using Vi-CELL XR Cell Viability Analyzer (Beckman Coulter).

CAL-51 tumors = assay: CAL-51 Tumor Xenograft Efficacy Study (IP); type: in vivo, mouse; details: 100 mg/kg IP once daily for 18 consecutive days
Method: Tumor volume and body weight assessment performed as described above. After the final dose on day 36, plasma pharmacokinetic analysis was performed as described above. All data analysis was performed as described above.

OVCAR-3 tumors = assay: OVCAR-3 Tumor Xenograft Efficacy Study (IP); details: 100 mg/kg IP once daily for 18 consecutive days
Method: Mice were injected with human OVCAR-3 cells (5.0×10^6) subcutaneously in the right flank. Animals with established tumors were randomized into four groups (n=10 per group) with average tumor volume of 130 mm^3. […] Treatment started on day 24 post-tumor implantation and treatment terminal on day 42. Tumor volumes and body weights were recorded twice per week using a digital caliper and analytical lab scale, respectively. […] The percentage of tumor growth inhibition (% TGI) was calculated as % TGI relative to vehicle control: % TGI=100−[(Treated−Initial Volume)/(Control−Initial Volume)×100]. The percentage of tumor regression (% TR) was calculated as % TR compared final tumor volume to the initial tumor volume: % TR=100−[(Final Volume)/(Initial Volume)×100]. Data was graphed using GraphPad Prism 7.05. Statistical analysis was performed on treatment groups for tumor growth and blood counts using repeated measures ANOVA and one-way ANOVA, respectively, followed by Dunnett's multiple comparisons test.

OVCAR-3 HGSOC cells = assay: Time course Western blot of cell cycle and apoptosis proteins; type: cell-based, human; details: 0.5 μM; release from double thymidine block, 4-24 hours
Method: OVCAR-3 HGSOC cells were seeded at a density of 1.4 million cells into 100 mm tissue culture plates in 10 mL of complete growth media. The next day, complete growth media containing 2 mM thymidine was added to the cells and incubated for 16 hours. Cells were washed thrice in 1×PBS before adding complete growth media for 8 hours, followed by and second 2 mM thymidine block for 16 hours. The double thymidine block arrested cells in G1/S phase of the cell cycle. Cells were release from G1/S block by first washing thrice in 1×PBS before adding complete growth media with DMSO or KIF18A inhibitor (Compound C11 at 0.5 μM). Cell lysates were prepared at multiple time points (4, 8, 10, 12, 14, and 24 hours). As controls, asynchronous growing OVCAR-3 cells were treated DMSO or KIF18A inhibitor (Compound C11 at 0.5 μM) and lysates were prepared at 24 hours. Primary antibodies included mouse anti-cleaved-PARP (cl-PARP) (51-900017, BD Pharmingen, 1:500), mouse anti-cyclin B1 (554179, BD Pharmingen, 1:500), rabbit anti-Mcl-1 (5453, Cell Signaling, 1:500), mouse anti-Cyclin E1 (MS-870-P, HE12, NeoMarkers, 1:2000), mouse anti-BubR1 (612503, BD Pharmingen, 1:5000), and rabbit anti-KIF18A (HPA039484, Simga, 1:2000), and mouse anti-β-actin (A5441, Simga, 1:5000).

[2] = system: p-Histone H3 in OVCAR-3 HGSOC tumor xenografts; assay: Tumor pharmacodynamic p-Histone H3 MSD assay; type: in vivo, mouse; details: 3, 10, 30, 100 mg/kg; tumor collected 24 hours post-treatment
Method: Female athymic nude mice were injected with 5×10^6 OVCAR-3 cells in 0.1 mL subcutaneously in the right flank. After tumors were established (average tumor volume of 450 to 750 mm^3), animals were randomized into 5 treatment groups (vehicle alone, KIF18A inhibitor at 3, 10, 30, or 100 mg/kg) with 3 animals per group. Tumor and blood plasma were collected 24 hours post-treatment for pharmacokinetic analysis and tumor for pharmacodynamic analysis. Preparations of tumor protein lysates from snap frozen, pulverized, and lysed and processed using EpiQuik Total Histone Extraction Kit (OP-0006 Epigentek, Farmingdale, N.Y.) protocol. […] Lysates normalized for total protein per well were loaded onto Meso Scale Discovery (MSD) electrochemiluminescent immunoassay plates at 30 μg/well in lysis buffer a processed of pHH3 MSD analysis according to the manufacturer's protocol for the single-plex MSD assays using phospho-Histone H3 (serine-10) antibody (pHH3) and analyzed on a Sector Imager S16000 luminescence detection reader (MSD, Gaithersburg, Md.). Lysates were normalized for total protein and pHH3 fold induction represents the group average raw MSD value divided by the average raw MSD value of the vehicle treated group. […] The fold induction in pHH3 is noted for each KIF18A inhibitor treatment group relative to mean baseline pHH3 signal for vehicle group. […]

Row | SMILES | BrdU incorporation (cell cycle analysis) relative to DMSO/vehicle control [1] | live cell count relative to vehicle control [1] | effect on tumor growth relative to vehicle control (CAL-51 tumors) | tumor regression (OVCAR-3 tumors) [%] | KIF18A and BubR1 protein levels (OVCAR-3 HGSOC cells) | cyclin B1, cl-PARP, Mcl-1 and cyclin E1 protein levels (OVCAR-3 HGSOC cells) | p-Histone H3 mitotic marker levels in tumor [2]
1 | CC(C)(C)NS(=O)(=O)c1cccc(NC(=O)c2ccc(S(=O)(=O)NC(C)(C)C)cc2N2CCC3(CC2)CC3)c1 [Compound C9, 4-(N-(tert-butyl)sulfamoyl)-N-(3-(N-(tert-butyl)sulfamoyl)phenyl)-2-(6-azaspiro[2.5]octan-6-yl)benzamide] | about the same; also recorded: minimal diminution in BrdU incorporation | little to no effect; also recorded: comparable cell counts | no observable effect | 73 |  |  | 
2 | CC(C)(CO)Nc1ccc(C(=O)Nc2cccc(S(=O)(=O)C3CCCC3)c2)c(N2CCC3(CC2)CC3)n1 [Compound C11, N-(3-(cyclopentylsulfonyl)phenyl)-6-((1-hydroxy-2-methylpropan-2-yl)amino)-2-(6-azaspiro[2.5]octan-6-yl)nicotinamide] | about the same; also recorded: minimal diminution in BrdU incorporation | little to no effect; also recorded: comparable cell counts |  |  | increase in KIF18A and BubR1 protein levels | increase in cyclin B1 and cl-PARP protein levels and a decrease in Mcl-1 and cyclin E1 levels | 
3 | Cc1cc(NC(=O)c2ccc(NS(=O)(=O)CCO)cc2N2CCC3(CC2)CC3)nc(N2CCC(F)(F)CC2)n1 [Compound C14, N-(2-(4,4-Difluoropiperidin-1-yl)-6-methylpyrimidin-4-yl)-4-((2-hydroxyethyl)sulfonamido)-2-(6-azaspiro[2.5]octan-6-yl)benzamide] |  |  |  |  |  |  | dose-dependent increase
